# Experimental data published in patent US20150245612A1, “ACTIVE INGREDIENT FOR CONTROLLING SPIDER MITES” (BAYER CROPSCIENCE AG, priority 2014, published 2015).
# Experiments:
# Type in all cases: in vivo
# Eutetranychus anneckei = Eutetranychus anneckei test; outdoor spray treatment (EUTEOR), orange trees; conditions: EUTEOR on C. sinensis
# From the text: Eutetranychus anneckei Test; Outdoor Spray Treatment (EUTEOR)
# (§1) To produce an appropriate active ingredient formulation, 1 part by weight of active ingredient is mixed with the stated amounts of water to the desired concentration. Added to the spray liquor is 0.1% a.i. Crovol.
# (§2) Three two-year-old orange trees (Citrus sinensis) affected by all stages of the oriental spider mite (Eutetranychus anneckei) are sprayed with an active ingredient formulation of each desired concentration. Application is effected with a motorized backpack sprayer. In accordance with common practice, the water application rate is 1000 l/Ha. One spray application is conducted in each case.
# (§3) After the desired time, the remaining mites per leaf are counted and calculated as the efficacy by the Abbott formula:
# (§4) B=treated plots K=untreated control plots
# Brevipalpus phoenicis = Brevipalpus phoenicis test; outdoor spray treatment (BRVPPH), orange trees; conditions: BRVPPH on C. sinensis
# From the text: Brevipalpus phoenicis Test; Outdoor Spray Treatment (BRVPPH)
# as §1
# as §2, with “eight-year-old” for “two-year-old”, “false” for “oriental”, “(Brevipalpus phoenicis)” for “(Eutetranychus anneckei)”
# as §3, §4
# Phyllocoptruta oleivora = Phyllocoptruta oleivora test; outdoor spray treatment (PHYUOL), orange trees; conditions: PHYUOL on C. sinensis
# From the text: Phyllocoptruta oleivora Test; Outdoor Spray Treatment (PHYUOL)
# as §1
# as §2, with “15-year-old” for “two-year-old”, “citrus rust” for “oriental spider”, “(Phyllocoptruta oleivora)” for “(Eutetranychus anneckei)”
# as §3, §4
# Panonychus citri [1] = test: Panonychus citri test; outdoor spray treatment (METTCI), orange trees; conditions: METTCI on C. sinensis
# From the text: Panonychus citri test; outdoor spray treatment (METTCI)
# To produce an appropriate active ingredient formulation, 1 part by weight of active ingredient is mixed with the stated amounts of water to the desired concentration. Added to the spray liquor is 0.1% a.i. rapeseed oil methyl ester.
# as §2, with “citrus red” for “oriental spider”, “(Panonychus citri)” for “(Eutetranychus anneckei)”
# as §3, §4
# Panonychus citri [2] = test: Panonychus citri test; outdoor spray treatment (METTCI), lemon trees; conditions: METTCI on C. limon
# From the text: (§5) Panonychus citri Test; Outdoor Spray Treatment (METTCI)
# as §1
# as §2, with “lemon” for “orange”, “limon)” for “sinensis)”, “citrus red” for “oriental spider”, “(Panonychus citri)” for “(Eutetranychus anneckei)”
# as §3, §4
# Panonychus citri [3] = test: Panonychus citri test; outdoor spray treatment (METTCI), satsuma trees; conditions: METTCI on C. unshiu
# From the text: as §5, §1
# as §2, with “5-year-old satsuma” for “two-year-old orange”, “unshiu)” for “sinensis)”, “citrus red” for “oriental spider”, “(Panonychus citri)” for “(Eutetranychus anneckei)”, “1850” for “1000”
# as §3, §4
# [4] = 100 g ai/ha/mch, + Crovol 0.1%, 7 Dat
# [5] = 100 g ai/ha/mch, + Crovol 0.1%, 14 Dat
smiles,measurement,setting,value
"Cc1nn(C)c(/C(OC(=O)C(C)(C)C)=C(\C#N)c2ccc(C(C)(C)C)cc2)c1C [Cyenopyrafen, reference compound]",Efficacy (% Abbott),"Eutetranychus anneckei; 150 g ai/ha/mch, 8 Dat",100 % Abbott
same,Efficacy (% Abbott),"Eutetranychus anneckei; 150 g ai/ha/mch, 16 Dat",96 % Abbott
same,Efficacy (% Abbott),"Eutetranychus anneckei; 150 g ai/ha/mch, 22 Dat",100 % Abbott
same,Efficacy (% Abbott),"Eutetranychus anneckei; 150 g ai/ha/mch, 30 Dat",83 % Abbott
same,Efficacy (% Abbott),"Eutetranychus anneckei; 150 g ai/ha/mch, 36 Dat",63 % Abbott
same,Efficacy (% Abbott),"Brevipalpus phoenicis; 150 g ai/ha/mch, 3 Dat",74.4 % Abbott
same,Efficacy (% Abbott),"Brevipalpus phoenicis; 150 g ai/ha/mch, 7 Dat",92.5 % Abbott
same,Efficacy (% Abbott),"Brevipalpus phoenicis; 150 g ai/ha/mch, 14 Dat",94.7 % Abbott
same,Efficacy (% Abbott),"Brevipalpus phoenicis; 150 g ai/ha/mch, 21 Dat",100 % Abbott
same,Efficacy (% Abbott),"Brevipalpus phoenicis; 150 g ai/ha/mch, 49 Dat",78 % Abbott
same,Efficacy (% Abbott),"Brevipalpus phoenicis; 150 g ai/ha/mch, 60 Dat",97.6 % Abbott
same,Efficacy (% Abbott),"Phyllocoptruta oleivora; 150 g ai/ha/mch, 5 Dat",32 % Abbott
same,Efficacy (% Abbott),"Phyllocoptruta oleivora; 150 g ai/ha/mch, 13 Dat",29 % Abbott
same,Efficacy (% Abbott),"Phyllocoptruta oleivora; 150 g ai/ha/mch, 19 Dat",31 % Abbott
same,Efficacy (% Abbott),"Phyllocoptruta oleivora; 150 g ai/ha/mch, 27 Dat",32 % Abbott
"CCC(C)(C)C(=O)OC1=C(c2ccc(Cl)cc2Cl)C(=O)OC12CCCCC2 [Spirodiclofen, reference compound]",Efficacy (% Abbott),"Panonychus citri [1]; 48 g ai/ha/mch, 1 Dat",29 % Abbott
same,Efficacy (% Abbott),"Panonychus citri [1]; 48 g ai/ha/mch, 5 Dat",90 % Abbott
same,Efficacy (% Abbott),"Panonychus citri [2]; 48 g ai/ha/mch, 6 Dat",58 % Abbott
same,Efficacy (% Abbott),"Panonychus citri [2]; 48 g ai/ha/mch, 23 Dat",100 % Abbott
same,Efficacy (% Abbott),"Panonychus citri [3]; 144 g ai/ha/mch, 4 Dat",70.7 % Abbott
same,Efficacy (% Abbott),"Panonychus citri [3]; 144 g ai/ha/mch, 7 Dat",85.2 % Abbott
same,Efficacy (% Abbott),"Panonychus citri [3]; 144 g ai/ha/mch, 14 Dat",78 % Abbott
Cn1nc(C(F)(F)C(F)(F)F)c(C(F)(F)F)c1C(=O)Nc1ccc(Cl)c(C(=O)NCc2ccccc2)c1 [Compound (I)],Efficacy (% Abbott),"Panonychus citri [1]; 50 g ai/ha/mch, + RME 0.1%, 1 Dat",85 % Abbott
same,Efficacy (% Abbott),"Panonychus citri [1]; 50 g ai/ha/mch, + RME 0.1%, 5 Dat",99 % Abbott
same,Efficacy (% Abbott),"Panonychus citri [1]; 100 g ai/ha/mch, + RME 0.1%, 1 Dat",99 % Abbott
same,Efficacy (% Abbott),"Panonychus citri [1]; 100 g ai/ha/mch, + RME 0.1%, 5 Dat",100 % Abbott
same,Efficacy (% Abbott),"Panonychus citri [2]; 100 g ai/ha/mch, + Crovol 0.1%, 6 Dat",90 % Abbott
same,Efficacy (% Abbott),"Panonychus citri [2]; 100 g ai/ha/mch, + Crovol 0.1%, 23 Dat",99 % Abbott
same,Efficacy (% Abbott),"Eutetranychus anneckei; 100 g ai/ha/mch, + Crovol 0.1%, 8 Dat",99 % Abbott
same,Efficacy (% Abbott),"Eutetranychus anneckei; 100 g ai/ha/mch, + Crovol 0.1%, 16 Dat",99 % Abbott
same,Efficacy (% Abbott),"Eutetranychus anneckei; 100 g ai/ha/mch, + Crovol 0.1%, 22 Dat",100 % Abbott
same,Efficacy (% Abbott),"Eutetranychus anneckei; 100 g ai/ha/mch, + Crovol 0.1%, 30 Dat",98 % Abbott
same,Efficacy (% Abbott),"Eutetranychus anneckei; 100 g ai/ha/mch, + Crovol 0.1%, 36 Dat",93 % Abbott
same,Efficacy (% Abbott),"Brevipalpus phoenicis; 100 g ai/ha/mch, + Crovol 0.1%, 3 Dat",88.4 % Abbott
same,Efficacy (% Abbott),Brevipalpus phoenicis; [4],95 % Abbott
same,Efficacy (% Abbott),Brevipalpus phoenicis; [5],100 % Abbott
same,Efficacy (% Abbott),"Brevipalpus phoenicis; 100 g ai/ha/mch, + Crovol 0.1%, 21 Dat",100 % Abbott
same,Efficacy (% Abbott),"Brevipalpus phoenicis; 100 g ai/ha/mch, + Crovol 0.1%, 49 Dat",92.7 % Abbott
same,Efficacy (% Abbott),"Brevipalpus phoenicis; 100 g ai/ha/mch, + Crovol 0.1%, 60 Dat",100 % Abbott
same,Efficacy (% Abbott),"Phyllocoptruta oleivora; 75 g ai/ha/mch, + Crovol 0.1%, 5 Dat",36 % Abbott
same,Efficacy (% Abbott),"Phyllocoptruta oleivora; 75 g ai/ha/mch, + Crovol 0.1%, 13 Dat",45 % Abbott
same,Efficacy (% Abbott),"Phyllocoptruta oleivora; 75 g ai/ha/mch, + Crovol 0.1%, 19 Dat",64 % Abbott
same,Efficacy (% Abbott),"Phyllocoptruta oleivora; 75 g ai/ha/mch, + Crovol 0.1%, 27 Dat",72 % Abbott
same,Efficacy (% Abbott),"Phyllocoptruta oleivora; 100 g ai/ha/mch, + Crovol 0.1%, 5 Dat",77 % Abbott
same,Efficacy (% Abbott),"Phyllocoptruta oleivora; 100 g ai/ha/mch, + Crovol 0.1%, 13 Dat",84 % Abbott
same,Efficacy (% Abbott),"Phyllocoptruta oleivora; 100 g ai/ha/mch, + Crovol 0.1%, 19 Dat",94 % Abbott
same,Efficacy (% Abbott),"Phyllocoptruta oleivora; 100 g ai/ha/mch, + Crovol 0.1%, 27 Dat",96 % Abbott
same,Efficacy (% Abbott),"Panonychus citri [3]; 100 g ai/ha/mch, + Crovol 0.1%, 4 Dat",100 % Abbott
same,Efficacy (% Abbott),Panonychus citri [3]; [4],98.1 % Abbott
same,Efficacy (% Abbott),Panonychus citri [3]; [5],97.6 % Abbott
